Laboratory results reported in patent publication US20240287172A1, “PROTEIN BINDERS TO IRHOM2 EPITOPES” (SCIRHOM GMBH, priority 2019, published 2024).

What was measured:
[1] = test system: PMA-induced release of endogenous IL-6R from PBMCs from healthy donors; assay: ELISA-based IL-6R release assay, PMA-induced, PBMCs from healthy donors; type: cell-based; conditions: Homo sapiens, PBMC; PMA 25 ng/ml, 6 hours; recombinant murine antibodies and IgG at 1 μg/ml; Batimastat at 10 μM
Experimental: In brief, on day 1, Nunc black MaxiSorp® 96-well plates (Thermo Fisher Scientific, USA) were coated overnight with 100 μl per well of mouse anti-human IL-6R capture antibody (provided as part of the DuoSet ELISA kit) at 4 μg/ml TBS at 4° C. On day 2, the capture antibody solution was removed and MaxiSorp® plates were blocked with 300 μl per well of TBS, 1% BSA at room temperature for 3 hours. Meanwhile, 40,000 PBMC from healthy donors (STEMCELL Technologies, Canada) cells in 80 μl of normal growth medium were seeded in each well of Greiner CELLSTAR V-bottom 96-well plates (Thermo Fisher Scientific, USA) and pre-incubated with 20 μl per well of standard growth medium supplemented with Batimastat (BB94, Abcam, UK) at 50 μM as positive control (for a final concentration of 10 μM in the resulting 100 μl sample volume), mouse IgG antibody (Thermo Fisher Scientific, USA) at 5 μg/ml as isotype control (for a final concentration of 1 μg/ml in the resulting 100 μl sample volume) or antibodies of the invention at 5 μg/ml (for a final concentration of 1 μg/ml in the resulting 100 μl sample volume) at 37° C., 5% CO2 for 30 minutes. […] Using an infinite M1000 (Tecan Group, Switzerland) microplate reader, the fluorescence of each well was collected at an excitation wavelength of 435 nm and an emission wavelength of 555 nm.

[2] = test system: PMA-induced release of endogenous TGFα from human PC3 prostate cancer cells; assay: ELISA-based TGFα release assay, PMA-induced, PC3 cells; type: cell-based; conditions: PC-3, PMA 25 ng/ml, 2 hours, recombinant murine antibodies and IgG at 1 μg/ml, Batimastat at 10 μM
Experimental: In brief, on day 1, Nunc black MaxiSorp® 96-well plates (Thermo Fisher Scientific, USA) were coated overnight with 100 μl per well of goat anti-human TGFα capture antibody (provided as part of the DuoSet ELISA kit) at 0.4 μg/ml TBS at 4° C. On day 2, the capture antibody solution was removed and MaxiSorp® plates were blocked with 300 μl per well of TBS, 1% BSA at room temperature for 3 hours. Meanwhile, 100,000 PC3 (European Collection of Authenticated Cell Cultures, UK) cells in 80 μl of normal growth medium were seeded in each well of F-bottom 96-well cell culture plates (Coming, USA) and pre-incubated with 20 μl per well of OptiMEM medium supplemented with Batimastat (BB94, Abcam, UK) at 50 μM as positive control (for a final concentration of 10 μM in the resulting 100 μl sample volume), mouse IgG antibody (Thermo Fisher Scientific, USA) at 5 μg/ml as isotype control (for a final concentration of 1 μg/ml in the resulting 100 μl sample volume) or antibodies of the invention at 5 μg/ml (for a final concentration of 1 μg/ml in the resulting 100 μl sample volume) at 37° C., 5% CO2 for 30 minutes. In case of stimulation controls, 20 μl of OptiMEM medium without test articles were added. […] Using an infinite M1000 (Tecan Group, Switzerland) microplate reader, the fluorescence of each well was collected at an excitation wavelength of 435 nm and an emission wavelength of 555 nm.

SMILES: CNC(=O)[C@H](Cc1ccccc1)NC(=O)[C@H](CC(C)C)[C@H](CSc1cccs1)C(=O)NO [Batimastat]
- inhibition at 10 µM [1]: 114%
- inhibition at 10 µM [2]: 99.1%
